Molecules are shown by their SMILES.

Six compounds from patent US7875607B2, “7,8-bicycloakyl-chroman derivatives” (Ampere Life Sciences, Inc., priority 2004, dated 2011) can be followed below.

Experiment [1] deals with T1, human recombinant 5-lipoxygenase (Homo sapiens, UniProt P09917).
T1 construct: purchased Cayman 60402
T1 sequence (P09917 1-674): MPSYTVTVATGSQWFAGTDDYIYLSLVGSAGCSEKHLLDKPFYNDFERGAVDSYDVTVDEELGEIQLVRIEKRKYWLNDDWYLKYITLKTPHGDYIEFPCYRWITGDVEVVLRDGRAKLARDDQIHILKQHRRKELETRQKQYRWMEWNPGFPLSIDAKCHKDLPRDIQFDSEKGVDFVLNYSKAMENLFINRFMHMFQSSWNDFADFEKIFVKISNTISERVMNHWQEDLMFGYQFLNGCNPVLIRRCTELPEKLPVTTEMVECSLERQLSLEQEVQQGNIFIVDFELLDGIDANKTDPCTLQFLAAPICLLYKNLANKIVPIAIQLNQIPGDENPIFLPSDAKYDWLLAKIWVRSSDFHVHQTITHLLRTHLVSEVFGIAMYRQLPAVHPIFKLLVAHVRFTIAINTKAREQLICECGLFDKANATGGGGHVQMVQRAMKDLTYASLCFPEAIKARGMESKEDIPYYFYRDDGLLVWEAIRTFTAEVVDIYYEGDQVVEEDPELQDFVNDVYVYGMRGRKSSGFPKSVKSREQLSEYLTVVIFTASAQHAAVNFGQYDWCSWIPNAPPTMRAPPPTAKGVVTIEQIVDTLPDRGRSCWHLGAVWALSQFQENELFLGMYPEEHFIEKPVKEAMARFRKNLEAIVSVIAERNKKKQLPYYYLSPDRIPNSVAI
Put plainly: 5-Lipoxygenase enzyme assay. It counts as biochemical. The settings on record: 70 μM arachidonic acid, pH 7.4. The method, boiled down:
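Human recombinant 5-LO (0.5 U) with compound in 50 mM Tris-HCl pH 7.4 reacted with 70 μM arachidonic acid for 10 min at room temperature. Hydroperoxide formation was read via FOX xylenol orange complex at 620 nm after 1 h; compounds at 5 concentrations from 10 μM, in triplicate.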

Experiment [2] relates to MPTP treated C57/BL6 mice. Put plainly: MPTP animal model, pole test. It counts as in vivo, mouse. The following applies: for effect on the functional deficit produced by MPTP: 30 mg/kg/day, each of days 1-3. Here is the method: MPTP/MPP^+-induced neurodegeneration of dopaminergic neurons is a well characterized model which is therefore widely used to understand the pathogenesis of Parkinson's disease. The compounds were tested against MPTP/MPP^+ induced neuronal death in vitro and in vivo as shown in the following examples. In vitro evaluation of protection against mitochondrial dysfunction is carried out using substantia nigra-derived dopaminergic progenitor cell line (as described in Son J H, et al J W. (1999) J Neurosci, 19:10-20), exposed to 1-methyl-4-phenylpyridinium (MPP^+). In vivo evaluation was carried out using mice that had been treated with 1-methyl-4-phenyl-1,2,3,6-tetrahydropyridine (MPTP), a neurotoxin. […] In a number of species, including humans, […] and rodents, MPTP produces an irreversible and severe parkinsonian syndrome which includes virtually all the clinical features of the disease.
Male C57/BL6 mice (Harlan, Ind.), weight 25-30 g, were used in all studies. MPTP-HCl (Sigma) was administered i.p. according to one of the following protocols. The maximum volume which was given per injection is 200 μL. In all studies, animals were euthanized with carbon dioxide and, brains removed for subsequent determination of dopamine depletion where appropriate.
The pole test evaluates motor co-ordination.
A rough surfaced metal pole (diameter 8 mm, height 50 cm) protruding from a cage filled with animal bedding was used for this test. Animals were placed head upwards at the top of the pole. They were required to turn and descend face downwards and the time taken for this was recorded (latency to reach bedding). Timing was started when the individual animal gripped the top of the pole and was stopped when all four limbs contacted the bedding.
All test compounds were administered ip. The maximum volume which was given per injection was 200 μL. Compounds were dosed up to twice daily, two days prior and 7 days post MPTP treatment.
A baseline reading was taken for each animal one day prior to MPTP treatment. All subsequent readings were normalized to the individual animal's baseline. Values were expressed as a percent baseline.
Data is percent baseline and expressed as mean±std dev: […]
Compound and vehicle given for 9 days in total, 2 days prior to MPTP and 7 days after MPTP treatment. L-DOPA given 1 hour prior to the pole test each day.

Experiment [3] has as its system IL-1beta production in mouse microglial cell line. The experiment is described as follows: Interleukin-1β microglial cell assay. It is filed as cell-based. The following applies: LPS 10 μg/ml and IFN gamma 10 ng/ml, 24 hours, read-out: EC50, inhibition of IL-1beta production. Here is the method: This assay measures the release of IL-1β from a mouse microglial cell line following an inflammatory challenge with LPS and interferon-gamma. The ability of test articles to inhibit microglial cell activation and IL-1β release is determined by co-incubation of the test article with the inflammatory challenge.
Mouse microglial cells were seeded in poly-D-lysine coated 96-well plates at a density of 10,000 cells/well and allowed to attach for 24 hours. Cells were stimulated by addition of LPS (10 μg/ml) and IFN gamma (10 ng/ml) in the presence or absence of test article. The cells were then incubated for 24 hours at 37° C., after which time the media was removed and used for cytokine determination as described below.
Viability of mouse microglial cells after exposure to the test article was determined using a fluorescent viability dye, Cell Tracker Green. Cell Tracker Green was used at a working concentration of 5 μM in 1×HBSS. Cells were washed once with HBSS (200 μl/well) and 100 μl Cell Tracker Green was added to each well. Cells were then incubated at 37° C. for 30 minutes, after which time the Cell Tracker was removed and the cells were washed once with HBSS (200 μl/well). 100 μl fresh HBSS was added to each well and the plate was read on a Fluoroskan plate reader using an excitation wavelength of 485 nm and an emission wavelength of 538 nm.
Solutions: • Wash Buffer: PBS 1 L+500 μl Tween 20 (final 0.05%) pH 7.2-7.4. • Blocking Buffer: 500 ml PBS+5 g BSA V (1%)+25 g Sucrose (5%)+0.25 g Sodium Azide (0.05%). • Reagent Diluent: 500 ml PBS+5 g BSA V (1%) pH 7.2-7.4 and filter sterilize through 0.2 μm. • Stop Solution: 2N sulfuric acid.
Duo Set Preparations: • 1. The IL-1β capture antibody was reconstituted in 1 ml of PBS to give a final concentration of 720 μg/ml, and the working concentration was 4 μg/ml. For coating one 96-well plate (at 100 μl/well) 56 μl of the 720 μg/ml stock was diluted into 10 ml of PBS. • 2. The IL-1β standards were reconstituted in 0.5 ml of Reagent Diluent (70 ng/ml). For a high standard of 1 ng/ml (2 wells at 100 μl each+enough for series dilution) 7.1 μl of the 70 ng/ml standard were diluted into 0.5 ml of Reagent Diluent • 3. The IL-1β detection antibody was reconstituted in 1 ml of Reagent Diluent to give a final concentration of 18 μg/ml and the working concentration is 100 ng/ml. For one 96-well plate (at 100 μl/well) 56 μl of the 18 μg/ml stock was diluted into 10 ml of Reagent Diluent.
• The Costar EIA Hi-binding plate was coated with capture antibody at 4 μg/ml. Each well was coated with 100 μl, and the plate was sealed and incubated overnight at room temperature. • Each well was aspirated and washed 3× with Wash Buffer. Each well was filled to the top, dispensed, and any remaining buffer was removed by inverting the plate and gently blotting against clean paper towels. • Non-specific binding sites were blocked by adding 300 μl of Blocking Buffer to each well, and after sealing incubating for at least 1 hour at room temperature. • After washing the plate was now ready for the samples. Assay Procedure: • 100 μl of either standard or sample were added in each well of the capture-coated and pre-blocked plate. The plate was sealed and incubated for 2 hours at room temperature, followed with washing. • 100 μl of the detection antibody (10 ng/ml) were added to each well. […]

In experiment [4] the test system is dopaminergic neuronal cell line. Put plainly: High glutamate-induced oxidative stress assay (HGOS). It counts as cell-based. The settings on record: Mus musculus; 30 mM glutamate, 16 hrs; read-out: EC50, protection against HGOS cell injury and cell death. The method, boiled down:
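Mouse dopaminergic cells (passage ≤ p11) were grown 72 h at 33 °C, washed in HBSS, then exposed 16 h at 37 °C to compounds in DMEM-No Glu with 1 mM glucose and 30 mM glutamate. Surviving cells were stained 30 min with 5 μM Cell Tracker Green and fluorescence read at 485/538 nm.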

The mark [5] stands for this setting: L-DOPA given 1 hour prior to the pole test, mean±std dev.

`COC(=O)CCC1(C)CCc2cc(O)c3c(c2O1)C1CCC3C1` (stereo not shown) [3-(6-Hydroxy-2-methyl-3,4,7,8,9,10-hexahydro-7,10-methano-2H-benzo[h]chromen-2-yl)-propionic Acid Methyl Ester]: the IC50 in experiment [1] is at most 5 µM. In experiment [2], the “effect on the functional deficit produced by MPTP” value is given as “significantly reduced the functional deficit produced by MPTP”. Consider `CC1(CCC(=O)O)CCc2cc(O)c3c(c2O1)C1CCC3C1` (stereo not shown) [3-(6-Hydroxy-2-methyl-3,4,7,8,9,10-hexahydro-7,10-methano-2H-benzo[h]chromen-2-yl)-propionic Acid], for which, in experiment [2], the “effect on the functional deficit produced by MPTP” value is “significantly reduced the functional deficit produced by MPTP”. Regarding `CC1(CCC(=O)O)CCc2cc(O)c3c(c2O1)C1CCCC3CC1` (stereo not shown) [3-(6-Hydroxy-2-methyl-3,4,7,8,9,10-hexahydro-7,10-propano-2H-benzo[h]chromen-2-yl)-propionic Acid], in experiment [3], the concentration for a half-maximal effect (EC50) was at most 20 µM. Same read-out and setting: in the case of `CC(C)=CCc1c(O)c2c(c3c1CCC(C)(CCC(=O)O)O3)C1CCC2C1` (stereo not shown) [3-[6-hydroxy-2-methyl-5-(3-methyl-but-2-enyl)-3,4,7,8,9,10-hexahydro-7,10-methano-2H-benzo[h]chromen-2-yl]-propionic acid] it was at most 20 µM. As for `CC(=O)Oc1c(CC=C(C)C)c2c(c3c1C1CCC3C1)OC(C)(C)CC2` (stereo not shown) [Acetic acid 2,2-dimethyl-5-(3-methyl-but-2-enyl)-3,4,7,8,9,10-hexahydro-7,10-methano-2H-benzo[h]chromen-6-yl ester], the EC50 is at most 1 µM in experiment [4] and at most 20 µM in experiment [3].

On to `N[C@@H](Cc1ccc(O)c(O)c1)C(=O)O` [L-DOPA], for which, in experiment [2] (setting [5]), the “pole test, percent baseline, Day 1” value is on record as 110 ± 13.2 percent baseline; the “pole test, percent baseline, Day 2” value turned out to be 97.9 ± 20.0 percent baseline; the “pole test, percent baseline, Day 3” value is 100.1 ± 14.8 percent baseline.
